From patent publication US12678436B2, “Pharmaceutical composition for preventing or treating fibrosis” (Daewoong Pharmaceutical Co., Ltd., priority 2021, dated 2026)

How the values were obtained:
[1] = Human pharmacokinetics, single administration (SAD); format: in vivo; conditions: median; healthy adults, single oral 500 mg, enteric coated tablet, N = 6
Method: (§1) The formulation used in the clinical trial was prepared in the same manner as in Preparation Examples 1 and 2.

[2] = tested on: ICR mice; experiment: 2-week repeated dose toxicity test in mice; format: in vivo; conditions: for SPLEEN % to BODY WEIGHT / SPLEEN weight / THYMUS % to BODY WEIGHT / THYMUS weight: 2 weeks, male ICR mice
Method: The active component was orally administered to acclimatized ICR mice for 7 days or more for 2 weeks.
After administration for 2 weeks, autopsies were performed on all animals. At autopsy, the weight of each organ was measured.

[3] = Measurement of change in body weight in BLM-administered mice; format: in vivo; conditions: for change in body weight: 21st day
Method: (§2) 70-100 μL of BLM solution (bleomycin 1-3 mg/kg) was administered to a lung of the acclimatized experimental animals using a catheter for 5 days or more. In accordance with the purpose of the test, the test drug was administered 7 days after BLM administration, and the drug was orally administered for 2 weeks until the 21st day of BLM administration. Body weight, SpO2, hydroxyproline, and inflammation cell counts were measured to determine the anti-fibrotic efficacy of the active component.
(§3) As a control group, Nintedanib (hereinafter ‘NIN’) and Pirfenidone (hereinafter ‘PID’), which are standard of care (hereinafter ‘SoC’) for idiopathic pulmonary fibrosis, were used. The effective dose of NIN used was confirmed through in vivo efficacy data in the literature published by Boehringer Ingelheim, which is a NIN development company, and the effective dose of PID was set in terms of mice based on in vivo efficacy (rat) data and 2-week repeated toxicity dose (rat) in FDA Pharmacology Review.
Body weight is an indirect indicator that can know the degree of improvement in the overall physical condition of the animal model. When the degree of weight loss is small, it can be inferred that the overall physical condition or symptoms of the disease are improved.
The body weight was measured using a scale on the 21st day when the administration was completed, and the results are shown in Table 6 and FIG. 5 below.

[4] = tested on: animal model of pulmonary fibrosis; experiment: Lung function evaluation (SpO2) in BLM-administered mice; format: in vivo; conditions: for SpO2: 2 weeks, 21st day after BLM
Method: as §2, §3
This lung function evaluation is the most direct and important evaluation index that has the greatest influence on the symptoms and quality of life of patients with pulmonary fibrosis, and is an experiment that can most directly show the effect of improving lung function in an animal model of pulmonary fibrosis by measuring the oxygen concentration in the body.
On the 21st day, it was measured with a SpO2 measuring device (Berry, Veterinary Pulse Oximeter) via the abdominal side of the mouse, and the results are shown in Table 2 and FIG. 1.

[5] = tested on: animal model of pulmonary fibrosis; experiment: Inflammation cell count analysis in BALF; format: in vivo, mice; conditions: for Lymphocyte (BALF cell count) / Macrophage (BALF cell count) / Neutrophil (BALF cell count) / Total cell (BALF cell count): 21st day
Method: as §2, §3
Since fibrosis is a chronic inflammatory disease characterized by excessive collagen deposition, the infiltration of inflammatory cells was analyzed to determine the degree of inflammation in the lung tissue.
At the sacrifice on the 21st day of administration, BALF (Bronchoalveolar lavage fluid) cells obtained through airway washing of mice were diluted with 1.05×PBS and attached to a slide, and then the slide was immersed and removed for 30 seconds in the order of 1, 2, 3 diff quick stain solution, and stained. It was counted based on 500 cells. Macrophages are the largest in size, mononuclear, and stained blue. Neutrophils and eosinophils form polynuclear cells, but eosinophils are stained red with eosin and distinguished from neutrophils. Lymphocytes have very less cytoplasm and are small in size as monocytes.

[6] = tested on: healthy adults; experiment: Human administration safety/drug tolerance; format: in vivo
Method: as §1
The safety and drug resistance of the compound of the present invention during administration to humans was confirmed in the same manner as in Experimental Example 4.

[7] = tested on: animal model of pulmonary fibrosis; experiment: Histopathology (Ashcroft score) analysis of lung tissue; format: in vivo, mice; conditions: for Fibrotic Index (±SEM): 21st day, 9 individuals
Method: as §2, §3
The degree of fibrosis and inflammation of the lung tissue were visually observed through a microscope, and the degree of fibrosis of lung tissue was measured with a Fibrotic Index according to normalized criteria. The higher the Fibrotic Index value, the more severe the degree and symptom of fibrosis. It is interpreted that as the value is lower, the symptom is relieved.
On the 21st day, lung tissue was separated and stained using H&E and MT stain, and observed at 200× magnification. The observed results were scored by Ashcroft (Hubner et al., 2008). The fibrotic index was calculated by dividing the sum of the adjusted Ashcroft field scores by the number of fields tested, and shown in Table 4 and FIG. 3.

[8] = Pharmacokinetic test after single oral administration in ICR mice; format: in vivo; conditions: mouse, blood; ICR mice (male), single oral 10 mg/kg, saline
Method: The pharmacokinetic parameters were calculated using Excel® and WinNonlin6.1 software for the blood drug concentration according to the change over time obtained through LC-MS/MS, and changes in the blood concentration of the active component are shown in Table 9 and FIG. 6.

[9] = tested on: animal model of pulmonary fibrosis; experiment: Measurement of total collagen content in lung (INSOLUBLE Collagen Assay); format: in vivo, mice; conditions: for collagen content in lung (hydroxyproline ratio value compared with normal group): 21st day
Method: as §2, §3
Pulmonary fibrosis is the accumulation of collagen in the lungs to make it stiff. The main cause of pulmonary fibrosis is the accumulation of collagen, and the degree of progression of fibrosis can be predicted by measuring the collagen content in the lung tissue.
In this experimental example, analysis was performed using INSOLUBLE Collagen Assay (Biocolor, S2000). After sacrifice on the 21st day, the cryopreserved lung tissue was pulverized by adding 100 uL of Fragmentation Reagent, and then, 100 uL of 37% HCl was added and incubated at 65°C. for 3 hours. The contents of the tube were shaken at 30 minute intervals to aid tissue disintegration. After centrifugation, the concentration was adjusted to 100 μL and collagen staining was proceeded to prepare a sample. Absorbance was measured at 560 nm.

[10] = Human pharmacokinetics, multiple administration (MAD), Day 14; format: in vivo; conditions: for Accumulation ratio based on AUCT: Day 14, N = 6; for AUC(0-t): human, plasma, oral
Method: as §1

O[C@H]1CCCN[C@@H]1CCCn1cnc2c(Cl)c(Cl)ccc21 [Active component]
tmax [1]: 3.01 h
SPLEEN % to BODY WEIGHT ([2]; 30 mg/kg/day oral): 0.22%
SPLEEN weight ([2]; 30 mg/kg/day oral): 0.059
THYMUS % to BODY WEIGHT ([2]; 30 mg/kg/day oral): 0.10%
THYMUS weight ([2]; 30 mg/kg/day oral): 0.026
SPLEEN % to BODY WEIGHT ([2]; 60 mg/kg/day oral): 0.25%
SPLEEN weight ([2]; 60 mg/kg/day oral): 0.070
THYMUS % to BODY WEIGHT ([2]; 60 mg/kg/day oral): 0.11%
THYMUS weight ([2]; 60 mg/kg/day oral): 0.029
toxicity / abnormal symptoms after repeated administration for 2 weeks ([2]; 30, 60, 120→90 mg/kg/day oral, ICR mice): No toxicity or significant abnormal symptoms
SPLEEN % to BODY WEIGHT ([2]; 120→90 mg/kg/day oral): 0.17%
SPLEEN weight ([2]; 120→90 mg/kg/day oral): 0.046
THYMUS % to BODY WEIGHT ([2]; 120→90 mg/kg/day oral): 0.05%
THYMUS weight ([2]; 120→90 mg/kg/day oral): 0.015
organ weight of spleen and thymus ([2]; administration group of 30 mg/kg/day or more): slight weight loss tendency
degree of body weight loss compared with Vehicle group ([3]; 10 mg/kg): improved
degree of body weight loss compared with Vehicle group ([3]; 30 mg/kg): improved
change in body weight ([3]; Active component 3 mg/kg oral): −22.44
change in body weight ([3]; Active component 10 mg/kg oral): −19.11
change in body weight ([3]; Active component 30 mg/kg oral): −16.78
oxygen permeation function improved compared with Vehicle ([4]; 10 mg/kg): ≥ 18%
oxygen permeation function improved compared with Vehicle ([4]; 30 mg/kg): ≥ 28%
SpO2 ([4]; Active component 3 mg/kg oral): 75.00
SpO2 ([4]; Active component 10 mg/kg oral): 77.89
SpO2 ([4]; Active component 30 mg/kg oral): 81.33
number of Neutrophil cells decreased compared to Vehicle ([5]; 10 mg/kg): ≥ 20%
total cell level improved compared to Vehicle ([5]; 10 mg/kg): ≥ 20%
number of Neutrophil cells decreased compared to Vehicle ([5]; 30 mg/kg): ≥ 60%
total cell level improved compared to Vehicle ([5]; 30 mg/kg): ≥ 30%
Lymphocyte (BALF cell count) ([5]; Active component 3 mg/kg oral): 0.79
Macrophage (BALF cell count) ([5]; Active component 3 mg/kg oral): 7.80
Neutrophil (BALF cell count) ([5]; Active component 3 mg/kg oral): 1.74
Total cell (BALF cell count) ([5]; Active component 3 mg/kg oral): 10.32
Lymphocyte (BALF cell count) ([5]; Active component 10 mg/kg oral): 0.51
Macrophage (BALF cell count) ([5]; Active component 10 mg/kg oral): 5.60
Neutrophil (BALF cell count) ([5]; Active component 10 mg/kg oral): 1.54
Total cell (BALF cell count) ([5]; Active component 10 mg/kg oral): 7.66
Lymphocyte (BALF cell count) ([5]; Active component 30 mg/kg oral): 0.46
Macrophage (BALF cell count) ([5]; Active component 30 mg/kg oral): 4.91
Neutrophil (BALF cell count) ([5]; Active component 30 mg/kg oral): 0.82
Total cell (BALF cell count) ([5]; Active component 30 mg/kg oral): 6.19
serious abnormal signs or side effects in clinical trial ([6]; 72 healthy adults, single 100-600 mg and multiple 25-200 mg twice a day): no serious abnormal signs or side effects
most frequent adverse reactions ([6]; single administration, healthy adults): gastrointestinal adverse events including nausea, vomiting, diarrhea and abdominal pain
tissue improvement effect compared with NIN and PID ([7]; 10 mg/kg): tissue improvement effect equivalent to or greater than that of NIN
tissue improvement effect compared with NIN and PID ([7]; 30 mg/kg): tissue improvement effect equivalent to or greater than that of NIN
Fibrotic Index (±SEM) ([7]; Active component 3 mg/kg oral): 4.6 (±0.3)
Fibrotic Index (±SEM) ([7]; Active component 10 mg/kg oral): 2.7 (±0.6)
Fibrotic Index (±SEM) ([7]; Active component 30 mg/kg oral): 2.8 (±0.4)
AUC [8]: 1.19 µg·h/mL
content of collagen in the lung compared to Vehicle ([9]; 10 mg/kg): significantly reduced
content of collagen in the lung compared to Vehicle ([9]; 30 mg/kg): significantly reduced
collagen content in lung (hydroxyproline ratio value compared with normal group) ([9]; Active component 3 mg/kg oral): 253.56
collagen content in lung (hydroxyproline ratio value compared with normal group) ([9]; Active component 10 mg/kg oral): 217.22
collagen content in lung (hydroxyproline ratio value compared with normal group) ([9]; Active component 30 mg/kg oral): 171.33
Accumulation ratio based on AUCT ([10]; 25 mg tablet twice a day): 1.94
Accumulation ratio based on AUCT ([10]; 50 mg tablet twice a day): 2.33
AUCT ([10]; 100 mg tablet twice a day, Day 14, 12 hour dosing interval, N = 6): 0.6174 µg·h/mL
Accumulation ratio based on AUCT ([10]; 100 mg tablet twice a day): 1.88
Accumulation ratio based on AUCT ([10]; 200 mg tablet twice a day): 3.75
AUC(0-t) ([10]; 25 mg tablet twice a day, Day 14, 12 hour dosing interval, N = 6): 0.183 µg·h/mL
AUC(0-t) ([10]; 50 mg tablet twice a day, Day 14, 12 hour dosing interval, N = 6): 0.429 µg·h/mL
AUC(0-t) ([10]; 200 mg tablet twice a day, Day 14, 12 hour dosing interval, N = 6): 3.01 µg·h/mL

COC(=O)c1ccc2c(c1)NC(=O)/C2=C(\Nc1ccc(N(C)C(=O)CN2CCN(C)CC2)cc1)c1ccccc1 [Nintedanib, reference compound]
change in body weight ([3]; Nintedanib 60 mg/kg oral): −19.44
SpO2 ([4]; Nintedanib 60 mg/kg oral): 78.67
Lymphocyte (BALF cell count) ([5]; Nintedanib 60 mg/kg oral): 0.68
Macrophage (BALF cell count) ([5]; Nintedanib 60 mg/kg oral): 5.61
Neutrophil (BALF cell count) ([5]; Nintedanib 60 mg/kg oral): 1.29
Total cell (BALF cell count) ([5]; Nintedanib 60 mg/kg oral): 7.57
Fibrotic Index (±SEM) ([7]; Nintedanib 60 mg/kg oral): 3.1 (±0.6)
collagen content in lung (hydroxyproline ratio value compared with normal group) ([9]; Nintedanib 60 mg/kg oral): 239.78

Cc1ccc(=O)n(-c2ccccc2)c1 [Pirfenidone, reference compound]
change in body weight ([3]; Pirfenidone 200 mg/kg oral): −14.67
SpO2 ([4]; Pirfenidone 200 mg/kg oral): 82.00
Lymphocyte (BALF cell count) ([5]; Pirfenidone 200 mg/kg oral): 0.46
Macrophage (BALF cell count) ([5]; Pirfenidone 200 mg/kg oral): 5.01
Neutrophil (BALF cell count) ([5]; Pirfenidone 200 mg/kg oral): 0.68
Total cell (BALF cell count) ([5]; Pirfenidone 200 mg/kg oral): 6.14
Fibrotic Index (±SEM) ([7]; Pirfenidone 200 mg/kg oral): 4.1 (±0.3)
collagen content in lung (hydroxyproline ratio value compared with normal group) ([9]; Pirfenidone 200 mg/kg oral): 177.44
